Our source for the relative viability values is the supplement of paper PMC10307832.

Holding throughout (assay): relative viability (nuclei count vs DMSO), 5 days (fraction); higher = more cells survive
Compound in the test “DM3189 + Tozasertib”: C1CN(CCN1)C2=CC=C(C=C2)C3=CN4C(=C(C=N4)C5=CC=NC6=CC=CC=C56)N=C3 [DM3189] + Cc1cc(Nc2cc(N3CCN(C)CC3)nc(Sc3ccc(NC(=O)C4CC4)cc3)n2)n[nH]1 [Tozasertib] (partner 0.1 µM)
In outline:
(§1)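 Lung cancer cell lines in 1536-well plates got either a single drug or a fixed anchor-drug dose together with five library-drug doses (not always all listed) in √10 steps, by pin tool, on the day after seeding. Nuclei were counted after 5 days, and relative viability is the treated-to-vehicle ratio of nuclei counts. Values are medians of duplicate plates.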

Compound in the test “DM3189 + Phenformin”: C1CN(CCN1)C2=CC=C(C=C2)C3=CN4C(=C(C=N4)C5=CC=NC6=CC=CC=C56)N=C3 [DM3189] + N=C(N)NC(=N)NCCc1ccccc1 [Phenformin] (partner 250 µM)
Summed up: as §1

Compound in the test “DM3189 + Pictilisib”: C1CN(CCN1)C2=CC=C(C=C2)C3=CN4C(=C(C=N4)C5=CC=NC6=CC=CC=C56)N=C3 [DM3189] + CS(=O)(=O)N1CCN(Cc2cc3nc(-c4cccc5[nH]ncc45)nc(N4CCOCC4)c3s2)CC1 [Pictilisib] (partner 1 µM)
In outline: as §1

Compound in the test “DM3189 + Vorinostat”: C1CN(CCN1)C2=CC=C(C=C2)C3=CN4C(=C(C=N4)C5=CC=NC6=CC=CC=C56)N=C3 [DM3189] + O=C(CCCCCCC(=O)Nc1ccccc1)NO [Vorinostat] (partner 1 µM)
In outline:
as §1

Compound in the test “DM3189 + Alpelisib”: C1CN(CCN1)C2=CC=C(C=C2)C3=CN4C(=C(C=N4)C5=CC=NC6=CC=CC=C56)N=C3 [DM3189] + Cc1nc(NC(=O)N2CCC[C@H]2C(N)=O)sc1-c1ccnc(C(C)(C)C(F)(F)F)c1 [Alpelisib] (partner 2 µM)
In outline: as §1

In the case of NCI-H3122, the relative viability stood at 0.38 in the test with DM3189 + Tozasertib (first compound 0.08 µM); 0.35 with DM3189 + Tozasertib (first compound 0.253 µM); 0.333 with DM3189 + Tozasertib (first compound 0.8 µM); 0.382 with DM3189 + Tozasertib (first compound 2.53 µM); 0.405 in the test with DM3189 + Phenformin (first compound 0.08 µM); 0.334 in the test with DM3189 + Phenformin (first compound 0.253 µM). Further, the relative viability turned out to be 0.355 with DM3189 + Phenformin (first compound 0.8 µM); 0.333 in the test with DM3189 + Phenformin (first compound 2.53 µM); 0.568 in the test with DM3189 + Pictilisib (first compound 0.08 µM); 0.466 with DM3189 + Pictilisib (first compound 0.253 µM); 0.601 with DM3189 + Pictilisib (first compound 0.8 µM); 0.502 with DM3189 + Pictilisib (first compound 2.53 µM). Moreover, the relative viability in the test with DM3189 + Vorinostat (first compound 0.08 µM) is 0.992; in the test with DM3189 + Vorinostat (first compound 0.253 µM), 0.74; in the test with DM3189 + Vorinostat (first compound 0.8 µM), 0.841; with DM3189 + Vorinostat (first compound 2.53 µM) it was 1.11; with DM3189 + Alpelisib (first compound 0.08 µM), 0.656; with DM3189 + Alpelisib (first compound 0.253 µM), 0.74. In addition, the results for the relative viability with DM3189 + Alpelisib (first compound 0.8 µM) and in the test with DM3189 + Alpelisib (first compound 2.53 µM) were 0.701 and 0.739, respectively.
As to PC-3 [JPC-3], the relative viability in the test with DM3189 + Tozasertib (first compound 0.08 µM) came to 0.84; with DM3189 + Tozasertib (first compound 0.253 µM), 0.968; in the test with DM3189 + Tozasertib (first compound 0.8 µM), 0.848; with DM3189 + Tozasertib (first compound 2.53 µM) it was 0.774; with DM3189 + Phenformin (first compound 0.08 µM) it was 0.475; with DM3189 + Phenformin (first compound 0.253 µM) it was 0.467. Moreover, the relative viability with DM3189 + Phenformin (first compound 0.8 µM) was determined as 0.471; in the test with DM3189 + Phenformin (first compound 2.53 µM), 0.467; in the test with DM3189 + Pictilisib (first compound 0.08 µM) it was 0.871; with DM3189 + Pictilisib (first compound 0.253 µM) it was 0.71; in the test with DM3189 + Pictilisib (first compound 0.8 µM), 0.669; with DM3189 + Pictilisib (first compound 2.53 µM), 0.75. The relative viability with DM3189 + Vorinostat (first compound 0.08 µM) was determined as 1.08; with DM3189 + Vorinostat (first compound 0.253 µM), 0.736; with DM3189 + Vorinostat (first compound 0.8 µM) it was 0.921; in the test with DM3189 + Vorinostat (first compound 2.53 µM), 0.898; with DM3189 + Alpelisib (first compound 0.08 µM), 1.08; with DM3189 + Alpelisib (first compound 0.253 µM), 1.08. Moreover, the relative viability is 1.02 with DM3189 + Alpelisib (first compound 0.8 µM) and 1.23 with DM3189 + Alpelisib (first compound 2.53 µM).
Regarding PC-14, the relative viability was 0.547 with DM3189 + Tozasertib (first compound 0.08 µM); 0.522 in the test with DM3189 + Tozasertib (first compound 0.253 µM); 0.567 in the test with DM3189 + Tozasertib (first compound 0.8 µM); 0.606 in the test with DM3189 + Tozasertib (first compound 2.53 µM); 0.817 in the test with DM3189 + Phenformin (first compound 0.08 µM); 0.527 with DM3189 + Phenformin (first compound 0.253 µM). In addition, the relative viability in the test with DM3189 + Phenformin (first compound 0.8 µM) is 0.435; with DM3189 + Phenformin (first compound 2.53 µM), 0.487; with DM3189 + Pictilisib (first compound 0.08 µM), 0.782; with DM3189 + Pictilisib (first compound 0.253 µM) it was 0.739; with DM3189 + Pictilisib (first compound 0.8 µM), 0.673; with DM3189 + Pictilisib (first compound 2.53 µM), 0.538. Moreover, the relative viability is 0.733 with DM3189 + Vorinostat (first compound 0.08 µM); 0.7 in the test with DM3189 + Vorinostat (first compound 0.253 µM); 0.674 in the test with DM3189 + Vorinostat (first compound 0.8 µM); 0.533 with DM3189 + Vorinostat (first compound 2.53 µM); 0.983 in the test with DM3189 + Alpelisib (first compound 0.08 µM); 0.996 with DM3189 + Alpelisib (first compound 0.253 µM). Moreover, the figures for the relative viability with DM3189 + Alpelisib (first compound 0.8 µM) and in the test with DM3189 + Alpelisib (first compound 2.53 µM) were 0.768 and 1.1, respectively.
As to RERF-LC-KJ, the relative viability with DM3189 + Tozasertib (first compound 0.08 µM) was 0.533; with DM3189 + Tozasertib (first compound 0.253 µM) it was 0.456; with DM3189 + Tozasertib (first compound 0.8 µM), 0.466; with DM3189 + Tozasertib (first compound 2.53 µM), 0.43; with DM3189 + Phenformin (first compound 0.08 µM), 0.451; with DM3189 + Phenformin (first compound 0.253 µM) it was 0.4. For the same cell line, the relative viability with DM3189 + Phenformin (first compound 0.8 µM) is 0.407; with DM3189 + Phenformin (first compound 2.53 µM), 0.426; with DM3189 + Pictilisib (first compound 0.08 µM) it was 0.585; with DM3189 + Pictilisib (first compound 0.253 µM), 0.694; in the test with DM3189 + Pictilisib (first compound 0.8 µM), 0.602; with DM3189 + Pictilisib (first compound 2.53 µM), 0.562. For the same cell line, the relative viability in the test with DM3189 + Vorinostat (first compound 0.08 µM) stood at 0.858; with DM3189 + Vorinostat (first compound 0.253 µM), 0.729; in the test with DM3189 + Vorinostat (first compound 0.8 µM), 0.661; with DM3189 + Vorinostat (first compound 2.53 µM) it was 0.715; in the test with DM3189 + Alpelisib (first compound 0.08 µM), 0.932; in the test with DM3189 + Alpelisib (first compound 0.253 µM) it was 0.829. The relative viability with DM3189 + Alpelisib (first compound 0.8 µM) came out at 0.895; with DM3189 + Alpelisib (first compound 2.53 µM), 0.937.
